Measurements published in publication PMC11833175, “Synthesis, characterization, antimicrobial, cytotoxic and carbonic anhydrase inhibition activities of multifunctional pyrazolo-1,2-benzothiazine acetamides” (Beilstein Journal of Organic Chemistry, 2025).
pKi: −log10 of the molar value. Like-named read-outs stand apart in the source and are kept apart here. Each block holds one compound with its values, some of them ahead of it.

Columns and labels:
[1] = tested on: susceptible S. aureus (ATCC 25923); assay: Microbroth dilution assay (MIC90), susceptible S. aureus; format: cell-based, Staphylococcus aureus; details: 90% growth inhibition
Description: (§1) Microbroth dilution assays were performed for the determination of MIC (minimum inhibitory concentration, MIC90) values for compounds 7b and 7h against three different strains of Staphylococcus aureus: susceptible (ATCC 25923), methicillin-resistant (ATCC BAA-41), and multidrug-resistant (ATCC BAA-44).
(§2) The antimicrobial evaluation of the targeted compounds was carried out against five different pathogens including Staphylococcus aureus (susceptible, ATCC 25923; methicillin-resistant, ATCC BAA-41; multidrug-resistant, ATCC BAA-44), Escherichia coli ATCC 8739, and Candida albicans ATCC 90027. Reference antibiotics and final concentrations used as positive controls in these experiments were kanamycin (susceptible S. aureus, 50 μg), vancomycin (methicillin and multidrug-resistant S. aureus, 25 μg), ampicillin (E. coli, 50 μg), and amphotericin B (C. albicans, 25 μg). The final concentration of the tested compounds was 125 μg/mL for microbroth single-dose assays. Dimethyl sulfoxide was used at a final concentration of 0.1% as negative control. […] American type culture collection (ATCC, Manassas, VA, USA) has provided all microbial strains used in above experiments.

[2] = tested on: Candida albicans (ATCC 90027); assay: Microbroth single-dose antimicrobial assay, C. albicans; format: cell-based; details: C. albicans ATCC 90027, value (SD)
Description: (§3) Microbroth single dose antimicrobial assays were performed against different pathogens including susceptible Staphylococcus aureus (ATCC 25923), Escherichia coli (ATCC 8739), and Candida albicans (ATCC 90027). Pathogens were treated with 125 μg/mL of tested compounds in duplicate.
as §2
(§4) Antimicrobial Single-dose assay for compounds 7(a-n) against
(§5) S. aureus E. coli C. albicans
(§6) Figure S43: Graph showing results of antimicrobial single-dose microbroth assays of compounds 7a–n, dose of tested compounds = 125 μg/mL, control antibiotic s used: kanamycin = 50 μg/mL (Staphylococcus aureus ATCC 25923), ampicillin = 50 μg/mL (Escherichia coli ATCC 8739), and amphotericin B = 25 μg/mL (Candida albicans ATCC 90027). Dimethylsulfoxide ( DMSO) was used as the negative control at 1.25% […]
(§7) Table S1: Results of single-dose antimicrobial and cytotoxic assays for compounds 7a–n; dosage of tested compounds = 125 μg/mL; antibiotic control dosage (kanamycin = 50 μg/mL (Staphylococcus aureus ATCC 25923), ampicillin = 50 μg/mL (Escherichia coli ATCC 8739), and amphotericin B = 25 μg/mL (Candida albicans ATCC 90027).
(§8) For cytotoxic assays, dosage of tested compounds = 10 μM; dosage of mensacarcin […]
(§9) Percent survival / % Cell viability
(§10) Samples S. aureus E.coli (SD) C. albicans (SD) HCT-116 […]

[3] = target: human carbonic anhydrase CA I (Homo sapiens, UniProt P00915); assay: hCA inhibition, stopped-flow CO2 hydration method, CA I
Description: (§15) In vitro assessment of all targeted pyrazolobenzothiazine scaffolds for human carbonic anhydrase (hCA) inhibition was performed adopting a stopped-flow CO2 hydration method. The enzyme inhibition assays were carried out for four types of human CA isoforms: CA I, CA II, CA IX, and XII. […] Reason for the selection of these CA isoforms was to develop a comparative relationship for inhibition selectivity between CAs (IX, XII) attributed to tumour/cancer and other CAs (I, II). […] Analyses were carried out in-house using recombinant enzymes as described.

[4] = target: human carbonic anhydrase CA II (Homo sapiens, UniProt P00918); assay: hCA inhibition, stopped-flow CO2 hydration method, CA II; details: mean from three assays, errors ±5–10%
Description: as §15

[5] = tested on: Escherichia coli (ATCC 8739); assay: Microbroth single-dose antimicrobial assay, E. coli; format: cell-based; details: ATCC8739, single dose 125 μg/mL, E. coli ATCC 8739, value (SD)
Description: as §3, §2, §4, §5, §6, §7, §8, §9, §10

[6] = Single-dose MTT cell viability assay; format: cell-based, human; details: human, HCT-116 cells (ATCC CCL-247), 48 h, 0.1% DMSO control = 100%, value (SD)
Description: (§11) Single-dose MTT assays were performed for compounds 7a–n against the human colon cancer mammalian cell line (HCT-116, ATCC CCL-247) for evaluating their inhibition of mammalian cell metabolism. Solutions of the tested compounds were prepared in DMSO and cancer cells were treated with 10 μM doses of compounds using the apoptosis inducing standard mensacarcin (10 μM) as a positive control.
(§12) Single-dose MTT assays were performed for compounds 7a–n with the human colon cancer mammalian cell line (HCT-116, ATCC CCL-247) for evaluating the compounds’ inhibitory effects on cell viability. Stock solutions of compounds were prepared in DMSO and cancer cells were treated with 10 μM doses of each compound and mensacarcin (10 μM) as a positive control. MTT in 1X PBS was added for a final concentration of 0.5 mg/mL 48 hours post compound addition to each well. Post incubation at 37 °C was carried out for 2 h. After the removal of the growth media, purple formazan metabolic product was dissolved in DMSO. A Biotek Synergy reader (96-well plate) was used to take absorbance of all samples at 550 nm. Cell viability was calculated as the ability of the metabolically active cells to reduce tetrazolium salt MTT [3-(4,5-dimethylthiazolyl-2)-2,5-diphenyltetrazolium bromide]. Control metabolic activity shown by cells treated with 0.1% DMSO was set to 100% cell growth. […]
as §8, §9, §10
(§13) HCT-116 (Human Colorn cancer cell line) Single -dose assay for […]
(§14) Figure S44: Graph showing cell viability of compounds 7a–n against human colon carcinoma cell line (HCT-116, ATCC CCL-247), dose of tested compounds = 10 μM, dose of positive control (mensacarcin) = 10 μM.

[7] = target: human carbonic anhydrase CA XII (Homo sapiens, UniProt O43570); assay: hCA inhibition, stopped-flow CO2 hydration method, CA XII; details: mean from three assays, errors ±5–10%
Description: as §15

[8] = tested on: Staphylococcus aureus (ATCC 25923); assay: Microbroth single-dose antimicrobial assay, susceptible S. aureus; format: cell-based; details: Staphylococcus aureus, ATCC25923; single dose 125 μg/mL; S. aureus ATCC 25923; value (SD)
Description: as §3, §2, §4, §5, §6, §7, §8, §9, §10

[9] = target: human carbonic anhydrase CA IX (Homo sapiens, UniProt Q16790); assay: hCA inhibition, stopped-flow CO2 hydration method, CA IX; details: mean from three assays, errors ±5–10%
Description: as §15

[10] = tested on: human colon cancer cell line HCT-116 (ATCC CCL-247); assay: Single-dose MTT cell viability assay; format: cell-based; details: 10 μM
Description: as §11, §12, §8, §9, §10, §13, §14

[11] = tested on: methicillin-resistant S. aureus (ATCC BAA-41); assay: Microbroth dilution assay (MIC90), methicillin-resistant S. aureus; format: cell-based, Staphylococcus aureus; details: Staphylococcus aureus, ATCC BAA-41 / MRSA, read-out: MIC90 MRSA
Description: as §1, §2

[12] = tested on: multidrug-resistant S. aureus (ATCC BAA-44); assay: Microbroth dilution assay (MIC90), multidrug-resistant S. aureus; format: cell-based, Staphylococcus aureus; details: Staphylococcus aureus, ATCCBAA44, read-out: MIC90 MDRSA
Description: as §1, §2

[13] = read-out: Ki for targeted CAs, I, mean from three assays, errors ±5–10%
[14] = read-out: Ki for targeted CAs, II
[15] = read-out: Ki for targeted CAs, XII
[16] = read-out: Ki for targeted CAs, IX

Chain of human carbonic anhydrase CA I (P00915 whole entry): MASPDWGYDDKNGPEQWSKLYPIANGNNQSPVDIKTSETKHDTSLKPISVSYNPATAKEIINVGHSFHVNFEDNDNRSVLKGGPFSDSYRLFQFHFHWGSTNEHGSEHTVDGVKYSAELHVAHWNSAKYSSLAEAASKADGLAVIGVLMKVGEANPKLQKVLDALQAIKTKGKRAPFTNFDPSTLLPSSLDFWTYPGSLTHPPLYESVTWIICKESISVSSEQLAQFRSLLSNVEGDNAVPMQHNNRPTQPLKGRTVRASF
Chain of human carbonic anhydrase CA XII (O43570 25-354): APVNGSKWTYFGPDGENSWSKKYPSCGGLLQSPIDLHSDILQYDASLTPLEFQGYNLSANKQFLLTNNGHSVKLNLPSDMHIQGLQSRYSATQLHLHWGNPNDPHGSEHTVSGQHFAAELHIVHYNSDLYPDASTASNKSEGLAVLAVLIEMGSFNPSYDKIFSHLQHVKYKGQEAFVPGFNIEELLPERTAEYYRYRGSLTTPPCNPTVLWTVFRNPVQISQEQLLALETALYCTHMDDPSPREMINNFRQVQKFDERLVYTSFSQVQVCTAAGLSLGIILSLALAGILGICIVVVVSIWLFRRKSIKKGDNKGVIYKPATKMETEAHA

SMILES: NC[C@H]1O[C@H](O[C@H]2[C@H](O)[C@@H](O[C@H]3O[C@H](CO)[C@@H](O)[C@H](N)[C@H]3O)[C@H](N)C[C@@H]2N)[C@H](O)[C@@H](O)[C@@H]1O [Kanamycin, kanamycin, reference compound]
MIC90 SA [1]: <1 µg/mL

SMILES: C[C@@H]1[C@H](O)[C@@H](C)/C=C/C=C/C=C/C=C/C=C/C=C/C=C/[C@H](O[C@@H]2O[C@H](C)[C@@H](O)[C@H](N)[C@@H]2O)C[C@@H]2O[C@](O)(C[C@@H](O)C[C@@H](O)[C@H](O)CC[C@@H](O)C[C@@H](O)CC(=O)O[C@H]1C)C[C@H](O)[C@H]2C(=O)O [Amphotericin B, amphotericin B, reference compound]
percent survival at 25 µg/mL ([2]; ATCC90027, antibiotic control 25 μg/mL): 4.71%

SMILES: CN[C@H](CC(C)C)C(=O)N[C@H]1C(=O)N[C@@H](CC(N)=O)C(=O)N[C@H]2C(=O)N[C@H]3C(=O)N[C@H](C(=O)N[C@H](C(=O)O)c4cc(O)cc(O)c4-c4cc3ccc4O)[C@H](O)c3ccc(c(Cl)c3)Oc3cc2cc(c3O[C@@H]2O[C@H](CO)[C@@H](O)[C@H](O)[C@H]2O[C@H]2C[C@](C)(N)[C@H](O)[C@H](C)O2)Oc2ccc(cc2Cl)[C@H]1O [vancomycin, reference compound]
MIC90 [11]: < 1 µg/mL
MIC90 [12]: < 1 µg/mL

Now from value to compound, other results behind:

pKi [3]: < 4.00
pKi ([4]; Ki for targeted CAs, II): < 4.00
pKi ([7]; Ki for targeted CAs, XII): < 4.00
pKi ([9]; Ki for targeted CAs, IX): < 4.00
SMILES: Cc1cccc(NC(=O)COc2nn(CC(=O)Nc3cccc(C)c3C)c3c2N(C)S(=O)(=O)c2ccccc2-3)c1C [Compound 7k]
percent survival at 125 µg/mL ([2]; ATCC90027, single dose 125 μg/mL): > 100%
percent survival at 125 µg/mL [5]: 94.2%
viability at 48 h, 10 µM [6]: 90.7%
percent survival of S. aureus at 125 µg/mL [8]: > 100%

pKi [3, 13]: < 4.00
pKi [4, 14]: < 4.00
pKi [7, 15]: < 4.00
pKi [9, 16]: < 4.00
SMILES: CN1c2c(OCC(=O)NC3CCCCC3)nn(CC(=O)NC3CCCCC3)c2-c2ccccc2S1(=O)=O [Compound 7n]

pKi [3, 13]: < 4.00
pKi [4, 14]: < 4.00
pKi [7, 15]: < 4.00
pKi [9, 16]: < 4.00
SMILES: Cc1ccccc1NC(=O)COc1nn(CC(=O)Nc2ccccc2C)c2c1N(C)S(=O)(=O)c1ccccc1-2 [Compound 7l]
effect on HCT-116 cell viability (in words) [10]: inhibited cell viability

pKi [3, 13]: < 4.00
pKi [4, 14]: < 4.00
pKi [7, 15]: < 4.00
pKi [9, 16]: < 4.00
SMILES: Cc1ccc(NC(=O)COc2nn(CC(=O)Nc3ccc(C)cc3)c3c2N(C)S(=O)(=O)c2ccccc2-3)cc1 [Compound 7m]
